Experimental data: ChEMBL document CHEMBL5674870, “Uropathogenic E. coli (UPEC) Infection Induces Proliferation through Enhancer of Zeste Homologue 2 (EZH2)” (PLoS One, 2016)
Activity calls are given as the source filed them. The calls are words filed in the database; no cut-off is given here.

Assays:
[1] = target: Histone-lysine N-methyltransferase EZH2 (Homo sapiens) (UniProt Q15910); assay: Inhibition of EZH2 in human HT-5637 cells assessed as decrease in uropathogenic Escherichia coli infection-induced WNT3A mRNA level by qRT-PCR analysis; type: cell-based
Histone-lysine N-methyltransferase EZH2 (Homo sapiens), sequence (Q15910 whole entry, looked up): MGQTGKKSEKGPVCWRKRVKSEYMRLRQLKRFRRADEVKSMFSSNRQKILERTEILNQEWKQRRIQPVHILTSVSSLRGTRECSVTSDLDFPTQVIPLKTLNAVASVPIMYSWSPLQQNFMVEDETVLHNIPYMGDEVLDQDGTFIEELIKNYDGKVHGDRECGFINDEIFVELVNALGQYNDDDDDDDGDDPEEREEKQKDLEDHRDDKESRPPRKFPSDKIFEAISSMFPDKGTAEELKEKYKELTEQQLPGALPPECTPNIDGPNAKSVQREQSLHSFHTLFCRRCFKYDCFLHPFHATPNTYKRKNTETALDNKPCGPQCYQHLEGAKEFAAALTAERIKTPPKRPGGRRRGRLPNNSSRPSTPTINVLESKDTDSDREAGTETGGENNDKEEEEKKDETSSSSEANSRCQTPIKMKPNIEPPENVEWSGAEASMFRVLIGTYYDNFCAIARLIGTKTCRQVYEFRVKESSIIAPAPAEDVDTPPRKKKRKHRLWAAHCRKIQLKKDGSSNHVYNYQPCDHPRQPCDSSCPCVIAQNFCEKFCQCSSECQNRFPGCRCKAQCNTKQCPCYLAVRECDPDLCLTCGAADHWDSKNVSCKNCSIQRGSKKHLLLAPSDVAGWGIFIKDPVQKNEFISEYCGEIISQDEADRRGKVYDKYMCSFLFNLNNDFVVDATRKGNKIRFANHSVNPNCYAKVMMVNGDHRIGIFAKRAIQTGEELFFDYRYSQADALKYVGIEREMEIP

[2] = target: Histone-lysine N-methyltransferase EZH2 (Homo sapiens) (UniProt Q15910); assay: Inhibition of EZH2 in human HT-5637 cells assessed as decrease in uropathogenic Escherichia coli infection-induced host cell proliferation at 500 nM measured 24 to 72 hrs after infection by immunofluorescence analysis; type: cell-based; conditions: time 24-72 hrs
[3] = Inhibition of KDM6A/6B in human HT-5637 cells assessed as increase in uropathogenic Escherichia coli infection-induced WNT3A mRNA level by qRT-PCR analysis; type: toxicity, cell-based
[4] = Inhibition of KDM6A/6B in human HT-5637 cells assessed as increase in uropathogenic Escherichia coli infection-induced host cell proliferation at 100 nM measured 24 to 72 hrs after infection by immunofluorescence analysis; type: toxicity, cell-based; conditions: human, 5637, 0.1 µM, time 24-72 hrs

inhibition [1]	inhibition [2]	Compound	inhibition (INH) [3]	inhibition (INH) [4]
Active	Active	CCCc1cc(C)[nH]c(=O)c1CNC(=O)c1cc(-c2ccc(N3CCN(C(C)C)CC3)nc2)cc2c1cnn2C(C)C	–	–
–	–	CCOC(=O)CCNc1cc(N2CCc3ccccc3CC2)nc(-c2ccccn2)n1	Active	Active
